± gives the expanded uncertainty stated by the source.
Test: refractive index (Na D-line) (dimensionless); xn = mol fraction of the nth substance listed
Settings: 101 kPa, Liquid, Standard Abbe refractometry

CN(CCO)CCO [N-methyldiethanolamine] + O=S1(=O)CCCC1
refractive index
Settings | x1 = 0.1001 | x1 = 0.2012 | x1 = 0.2999 | x1 = 0.4003 | x1 = 0.5005 | x1 = 0.6 | x1 = 0.7002 | x1 = 0.8011 | x1 = 0.8998 | x1 = 1
293.15 K | 1.48265 ± 0.00037 | 1.48037 ± 0.00037 | 1.47845 ± 0.00037 | 1.4766 ± 0.00037 | 1.47489 ± 0.00037 | 1.47343 ± 0.00037 | 1.47207 ± 0.00037 | 1.47093 ± 0.00037 | 1.47017 ± 0.00037 | 1.46935 ± 0.00037
298.15 K | 1.48095 ± 0.00037 | 1.47872 ± 0.00037 | 1.47672 ± 0.00037 | 1.47488 ± 0.00037 | 1.47316 ± 0.00037 | 1.47164 ± 0.00037 | 1.47023 ± 0.00037 | 1.469 ± 0.00037 | 1.46802 ± 0.00037 | 1.46724 ± 0.00037
303.15 K | 1.47886 ± 0.00037 | 1.4767 ± 0.00037 | 1.47473 ± 0.00037 | 1.47288 ± 0.00037 | 1.47124 ± 0.00037 | 1.46976 ± 0.00037 | 1.46844 ± 0.00037 | 1.46717 ± 0.00037 | 1.46615 ± 0.00037 | 1.46532 ± 0.00037
308.15 K | 1.47712 ± 0.00037 | 1.47488 ± 0.00037 | 1.47281 ± 0.00037 | 1.47099 ± 0.00037 | 1.46931 ± 0.00037 | 1.46777 ± 0.00037 | 1.46639 ± 0.00037 | 1.46513 ± 0.00037 | 1.46413 ± 0.00037 | 1.4631 ± 0.00037
313.15 K | 1.47549 ± 0.00037 | 1.47327 ± 0.00037 | 1.47109 ± 0.00037 | 1.46919 ± 0.00037 | 1.46741 ± 0.00037 | 1.46584 ± 0.00037 | 1.46442 ± 0.00037 | 1.46301 ± 0.00037 | 1.46184 ± 0.00037 | 1.46074 ± 0.00037
318.15 K | 1.47376 ± 0.00037 | 1.47154 ± 0.00037 | 1.46941 ± 0.00037 | 1.46751 ± 0.00037 | 1.46573 ± 0.00037 | 1.46414 ± 0.00037 | 1.46267 ± 0.00037 | 1.46127 ± 0.00037 | 1.46005 ± 0.00037 | 1.45892 ± 0.00037
323.15 K | 1.47203 ± 0.00037 | 1.46976 ± 0.00037 | 1.46769 ± 0.00037 | 1.46581 ± 0.00037 | 1.46403 ± 0.00037 | 1.46242 ± 0.00037 | 1.46091 ± 0.00037 | 1.45949 ± 0.00037 | 1.45821 ± 0.00037 | 1.45708 ± 0.00037
328.15 K | 1.47021 ± 0.00037 | 1.46788 ± 0.00037 | 1.46596 ± 0.00037 | 1.46404 ± 0.00037 | 1.46226 ± 0.00037 | 1.46061 ± 0.00037 | 1.45905 ± 0.00037 | 1.45761 ± 0.00037 | 1.45636 ± 0.00037 | 1.45513 ± 0.00037
